According to US20240366598A1, “GLUCOSE-DEPENDENT INSULINOTROPIC POLYPEPTIDE RECEPTOR ANTAGONISTS AND USES THEREOF” (Pfizer Inc., priority 2023, published 2024):

biological target: T1, human Glucose-dependent Insulinotropic Polypeptide Receptor (hGIPR) (Homo sapiens, UniProt P48546); experiment: Functional in vitro GIPR antagonist potency assay (cAMP HTRF, CHO-K1 cells stably expressing hGIPR, hGIP stimulation at about EC80); type: cell-based; conditions: geometric mean, hGIP at estimated EC80, examples marked ^2: overall geometric mean of multiple forms (including salts) tested
T1 sequence (P48546 22-466): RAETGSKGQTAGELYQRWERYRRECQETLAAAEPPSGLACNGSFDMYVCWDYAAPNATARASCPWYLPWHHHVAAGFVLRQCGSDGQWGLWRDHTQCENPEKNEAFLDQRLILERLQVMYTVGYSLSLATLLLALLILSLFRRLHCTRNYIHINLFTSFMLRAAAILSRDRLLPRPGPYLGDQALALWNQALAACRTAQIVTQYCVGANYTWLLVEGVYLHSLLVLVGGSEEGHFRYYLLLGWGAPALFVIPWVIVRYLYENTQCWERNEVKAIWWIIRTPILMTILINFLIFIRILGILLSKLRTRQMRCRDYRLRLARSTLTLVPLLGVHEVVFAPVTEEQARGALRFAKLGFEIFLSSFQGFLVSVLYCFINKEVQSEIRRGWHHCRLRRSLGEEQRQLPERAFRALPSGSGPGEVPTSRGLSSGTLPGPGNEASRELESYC
Summary of the method: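 HTRF quantification of cAMP after stimulation with hGIP at an estimated EC80 for 30 min at 37 °C. Before stimulation, hGIPR-expressing CHO-K1 cells were exposed 2 h to test compound in IBMX-containing buffer, with 0.5% DMSO final. Percent effect is referenced to agonist alone (0%) and to 80 μM of a reference antagonist (100%), and runs required the agonist concentration to fall within the on-the-day EC50–EC90.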

Row | SMILES | IC50 [nM]
1 | O=C(O)c1ccc(-c2ccc(NC(=O)[C@H]3CCCN3C(=O)Nc3ccc(C4CCCC4)cc3)cc2)cc1 [Example 115, 4′-({1-[(4-cyclopentylphenyl)carbamoyl]-D-prolyl}amino)[1,1′-biphenyl]-4-carboxylic acid] | 4.8
2 | O=C(O)c1ccc(-c2ccc(NC(=O)[C@H]3CCCN3C(=O)NCc3ccc(Cl)c(Cl)c3)cc2)cc1 [Example 116, 4′-[(1-{[(3,4-dichlorophenyl)methyl]carbamoyl}-D-prolyl)amino][1,1′-biphenyl]-4-carboxylic acid] | 12
3 | CC(C)c1ccc(NC(=O)N2CCC[C@@H]2C(=O)Nc2ccc(-c3ccc(C(=O)O)cc3)cc2)c(F)c1 [Example 117, 4′-[(1-{[2-fluoro-4-(propan-2-yl)phenyl]carbamoyl}-D-prolyl)amino][1,1′-biphenyl]-4-carboxylic acid] | 26
4 | CCc1ccc(NC(=O)N2CCC[C@@H]2C(=O)Nc2ccc(-c3ccc(C(=O)O)cc3)cc2)cc1 [Example 118, 4′-({1-[(4-ethylphenyl)carbamoyl]-D-prolyl}amino)[1,1′-biphenyl]-4-carboxylic acid] | 15
5 | CC(C)(C)c1ccc(NC(=O)N2CCC[C@@H]2C(=O)Nc2ccc(-c3ccc(C(=O)O)cc3)cc2)cc1 [Example 119, 4′-({1-[(4-tert-butylphenyl)carbamoyl]-D-prolyl}amino)[1,1′-biphenyl]-4-carboxylic acid] | 24
6 | COc1nc(C(=O)O)ccc1-c1ccc(NC(=O)[C@H]2CCCN2C(=O)Nc2ccc(C(C)C)cc2)cc1 [Example 120, 6-methoxy-5-{4-[(1-{[4-(propan-2-yl)phenyl]carbamoyl}-D-prolyl)amino]phenyl}pyridine-2-carboxylic acid] | 26
7 | CC(C)c1ccc(NC(=O)N2CCC[C@@H]2C(=O)Nc2cnc(-c3ccc(C(=O)O)cc3)cn2)cc1 [Example 121, 4-{5-[(1-{[4-(propan-2-yl)phenyl]carbamoyl}-D-prolyl)amino]pyrazin-2-yl}benzoic acid] | 27
8 | O=C(O)c1ccc(-c2ccc(NC(=O)[C@H]3CCCN3C(=O)Nc3ccc(C4CC4)cc3)cc2)cn1 [Example 122, 5-[4-({1-[(4-cyclopropylphenyl)carbamoyl]-D-prolyl}amino)phenyl]pyridine-2-carboxylic acid] | 99
9 | CC(C)c1ccc(NC(=O)N2C[C@H]3C[C@H]3[C@@H]2C(=O)Nc2ccc(-c3ccc(C(=O)O)cc3)cn2)cc1 [Example 123, 4-(6-{[(1R,2R,5S)-3-{[4-(propan-2-yl)phenyl]carbamoyl}-3-azabicyclo[3.1.0]hexane-2-carbonyl]amino}pyridin-3-yl)benzoic acid] | 11
10 | O=C(O)c1ccc(-c2ccc(NC(=O)[C@H]3CCCN3C(=O)NCc3ccc(F)c(Cl)c3)cc2)cc1 [Example 124, 4′-[(1-{[(3-chloro-4-fluorophenyl)methyl]carbamoyl}-D-prolyl)amino][1,1′-biphenyl]-4-carboxylic acid] | 74
11 | CC(C)(C)c1ccc(CNC(=O)N2CCC[C@@H]2C(=O)Nc2ccc(-c3ccc(C(=O)O)cc3)cc2)cc1 [Example 125, 4′-[(1-{[(4-tert-butylphenyl)methyl]carbamoyl}-D-prolyl)amino][1,1′-biphenyl]-4-carboxylic acid] | 19
12 | O=C(O)c1ccc(-c2ccc(NC(=O)[C@H]3CCCN3C(=O)NCc3ccc(C(F)(F)F)c(F)c3)cc2)cc1 [Example 126, 4′-{[1-({[3-fluoro-4-(trifluoromethyl)phenyl]methyl}carbamoyl)-D-prolyl]amino}[1,1′-biphenyl]-4-carboxylic acid] | 6.6
13 | CC(C)c1ccc(CNC(=O)N2CCC[C@@H]2C(=O)Nc2ccc(-c3ccc(C(=O)O)cc3)cc2)c(F)c1 [Example 127, 4′-{[1-({[2-fluoro-4-(propan-2-yl)phenyl]methyl}carbamoyl)-D-prolyl]amino}[1,1′-biphenyl]-4-carboxylic acid] | 69
14 | O=C(O)c1ccc(-c2ccc(NC(=O)[C@H]3CCCN3C(=O)Nc3cc(F)c(C(F)(F)F)c(F)c3)cc2)cc1 [Example 128, 4′-[(1-{[3,5-difluoro-4-(trifluoromethyl)phenyl]carbamoyl}-D-prolyl)amino][1,1′-biphenyl]-4-carboxylic acid] | 9.3
15 | Cc1ccc(CNC(=O)N2CCC[C@@H]2C(=O)Nc2ccc(-c3ccc(C(=O)O)cc3)cc2)cc1F [Example 129, 4′-[(1-{[(3-fluoro-4-methylphenyl)methyl]carbamoyl}-D-prolyl)amino][1,1′-biphenyl]-4-carboxylic acid] | 14
16 | O=C(O)c1ccc(-c2ccc(NC(=O)[C@H]3CCCN3C(=O)NCc3ccc(C(F)(F)F)c(Cl)c3)cc2)cc1 [Example 130, 4′-{[1-({[3-chloro-4-(trifluoromethyl)phenyl]methyl}carbamoyl)-D-prolyl]amino}[1,1′-biphenyl]-4-carboxylic acid] | 11
17 | O=C(O)c1ccc(-c2ccc(NC(=O)[C@H]3CCCN3C(=O)NCc3ccc(C(F)(F)F)cc3F)cc2)cc1 [Example 131, 4′-{[1-({[2-fluoro-4-(trifluoromethyl)phenyl]methyl}carbamoyl)-D-prolyl]amino}[1,1′-biphenyl]-4-carboxylic acid] | 140
18 | O=C(O)c1ccc(-c2ccc(NC(=O)[C@H]3CCCN3C(=O)NCc3ccc(Cl)cc3F)cc2)cc1 [Example 132, 4′-[(1-{[(4-chloro-2-fluorophenyl)methyl]carbamoyl}-D-prolyl)amino][1,1′-biphenyl]-4-carboxylic acid] | 77
19 | O=C(O)c1ccc(-c2ccc(NC(=O)[C@H]3CCCN3C(=O)NCc3c(F)cc(Cl)cc3F)cc2)cc1 [Example 133, 4′-[(1-{[(4-chloro-2,6-difluorophenyl)methyl]carbamoyl}-D-prolyl)amino][1,1′-biphenyl]-4-carboxylic acid] | 180
20 | COc1cc(C(F)(F)F)ccc1NC(=O)N1CCC[C@@H]1C(=O)Nc1ccc(-c2ccc(C(=O)O)cc2)cc1 [Example 134, 4′-[(1-{[2-methoxy-4-(trifluoromethyl)phenyl]carbamoyl}-D-prolyl)amino][1,1′-biphenyl]-4-carboxylic acid] | 140
21 | CC(C)c1ccc(NC(=O)N2CCC[C@@H]2C(=O)Nc2ccc(-c3ccc(C(=O)O)cc3)cc2)c(Cl)c1 [Example 135, 4′-[(1-{[2-chloro-4-(propan-2-yl)phenyl]carbamoyl}-D-prolyl)amino][1,1′-biphenyl]-4-carboxylic acid] | 52
22 | O=C(O)c1ccc(-c2ccc(NC(=O)[C@H]3CCCN3C(=O)NCc3ccc(C4CC4)cc3)cc2)cc1 [Example 136, 4′-[(1-{[(4-cyclopropylphenyl)methyl]carbamoyl}-D-prolyl)amino][1,1′-biphenyl]-4-carboxylic acid] | 7.8
23 | CC(C)Cc1ccc(CNC(=O)N2CCC[C@@H]2C(=O)Nc2ccc(-c3ccc(C(=O)O)cc3)cc2)cc1 [Example 137, 4′-{[1-{{[4-(2-methylpropyl)phenyl]methyl}carbamoyl)-D-prolyl]amino}[1,1′-biphenyl]-4-carboxylic acid] | 9.8
24 | O=C(O)c1ccc(-c2ccc(NC(=O)[C@H]3CCCN3C(=O)NCc3cc(F)c(Cl)cc3F)cc2)cc1 [Example 138, 4′-[(1-{[(4-chloro-2,5-difluorophenyl)methyl]carbamoyl}-D-prolyl)amino][1,1′-biphenyl]-4-carboxylic acid] | 42
25 | O=C(O)c1ccc(-c2ccc(NC(=O)[C@H]3CCCN3C(=O)NCc3ccc(C(F)(F)F)cc3Cl)cc2)cc1 [Example 139, 4′-{[1-({[2-chloro-4-(trifluoromethyl)phenyl]methyl}carbamoyl)-D-prolyl]amino}[1,1′-biphenyl]-4-carboxylic acid] | 93
26 | O=C(O)c1ccc(-c2ccc(NC(=O)[C@H]3CCCN3C(=O)Nc3ccc(C4CC4)cc3F)cc2)cc1 [Example 140, 4′-({1-[(4-cyclopropyl-2-fluorophenyl)carbamoyl]-D-prolyl}amino)[1,1′-biphenyl]-4-carboxylic acid] | 67
27 | O=C(O)c1ccc(-c2ccc(NC(=O)[C@H]3CCCN3C(=O)NCc3ccc(C(F)F)cc3)cc2)cc1 [Example 141, 4′-{[1-({[4-(difluoromethyl)phenyl]methyl}carbamoyl)-D-prolyl]amino}[1,1′-biphenyl]-4-carboxylic acid] | 97
28 | Cc1cc(C2CC2)ccc1NC(=O)N1CCC[C@@H]1C(=O)Nc1ccc(-c2ccc(C(=O)O)cc2)cc1 [Example 142, 4′-({1-[(4-cyclopropyl-2-methylphenyl)carbamoyl]-D-prolyl}amino)[1,1′-biphenyl]-4-carboxylic acid] | 130
29 | COc1cc(NC(=O)N2CCC[C@@H]2C(=O)Nc2ccc(-c3ccc(C(=O)O)cc3)cc2)ccc1C(F)(F)F [Example 143, 4′-[(1-{[3-methoxy-4-(trifluoromethyl)phenyl]carbamoyl}-D-prolyl)amino][1,1′-biphenyl]-4-carboxylic acid] | 35
30 | Cc1cc(NC(=O)N2CCC[C@@H]2C(=O)Nc2ccc(-c3ccc(C(=O)O)cc3)cc2)ccc1C1CC1 [Example 144, 4′-({1-[(4-cyclopropyl-3-methylphenyl)carbamoyl]-D-prolyl}amino)[1,1′-biphenyl]-4-carboxylic acid] | 6.1
